Laboratory results from patent US8497263B2, “Pyrrolinone derivative and pharmaceutical composition comprising the same” (Shionogi & Co., Ltd., priority 2007, dated 2013).

Experiments:
human P2X3 receptor = target: T1, human P2X3 receptor (Homo sapiens, UniProt P56373); test: Inhibition of ATP-induced calcium fluorescence (Fluo-3, FDSS 3000) in C6BU-1 cells stably expressing human P2X3 receptor; assay type: cell-based; settings: C6BU-1 cell transfected with human P2X3 receptor gene; 40 nM ATP solution; Fluo-3 fluorescence intensity
T1 construct: expressed in transfected cells
T1 sequence (P56373 1-397): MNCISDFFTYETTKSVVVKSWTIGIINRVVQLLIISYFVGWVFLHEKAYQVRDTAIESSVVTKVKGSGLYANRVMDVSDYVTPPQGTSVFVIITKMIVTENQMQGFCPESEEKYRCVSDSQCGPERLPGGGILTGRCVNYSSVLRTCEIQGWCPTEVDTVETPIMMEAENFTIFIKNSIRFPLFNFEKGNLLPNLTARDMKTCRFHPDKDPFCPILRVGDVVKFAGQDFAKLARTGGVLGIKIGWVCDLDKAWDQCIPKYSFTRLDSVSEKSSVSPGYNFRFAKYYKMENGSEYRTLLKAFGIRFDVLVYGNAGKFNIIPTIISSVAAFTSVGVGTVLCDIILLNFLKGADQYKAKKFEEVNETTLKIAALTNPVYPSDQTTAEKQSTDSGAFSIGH
Experimental: Stably expressing cell line (C6BU-1 cell transfected with human P2X3 receptor gene (GenBank accession number Y07683)) was used. The cells were seeded in a 96-well microtiter plate at a concentration of 8000 cells/well and cultured in the medium (8.3% fetal bovine serum, 8.3% horse serum, 1% antibiotic and antifungal in DMEM) for one day at 37° C. under 5% carbon dioxide atmosphere. The medium was replaced with 4 μM Fluo-3-AM solution (pH7.5) containing 20 mM HEPES, 137 mM NaCl, 2.7 mM KCl, 0.9 mM MgCl2, 5.0 mM CaCl2, 5.6 mM D-glucose, 2.5 mM probenecid, 10% BSA, and 0.08% Pluronic F-127, and incubated at 37° C. under 5% dioxide carbon atmosphere for one hour. The plate was washed with washing buffer (20 mM HEPES, 137 mM NaCl, 2.7 mM KCl, 0.9 mM MgCl2, 5.0 mM CaCl2, 5.6 mM D-glucose, 2.5 mM probenecid, pH7.5), and each well was added with 40 μL of this buffer. The plate was placed in High-Throughput Screening System FDSS 3000 (Hamamatsu Photonics K.K.). Measurement of fluorescence intensity by FDSS 3000 was started, and 40 μL of DMSO solutions containing different concentrations of the test compound as prepared by dilution with dilution buffer (20 mM HEPES, 137 mM NaCl, 2.7 mM KCl, 0.9 mM MgCl2, 5.0 mM CaCl2, 5.6 mM D-glucose, 2.5 mM probenecid, 0.1% Pluronic F-127, pH7.5) were dispensed to each well through the built-in automatic dispenser. Five minutes after, 40 nM ATP solution (50 μL) prepared by dilution with the dilution buffer was dispensed through the built-in automatic dispenser, and the measurement of fluorescence intensity was continued for 3 min. For each well, the specific maximum fluorescence intensity was calculated as the ratio of the maximum fluorescence intensity after addition of the ATP solution to the fluorescence intensity at the starting of the measurement. […] FDSS software (Hamamatsu Photonics K.K.) was used for calculation of the specific maximum fluorescence intensity. IC50 was calculated using Microsoft™ Excel™ (Microsoft Corporation) and XLfit™ (ID Business Solutions Ltd.).

COc1ccc(C(=O)C2=C(O)C(=O)N(c3ccc(SC(F)(F)F)cc3)C2c2ccc(F)cc2)cc1 (centres unmarked) [Example I-45]
melting point: 225 to 228 °C (dec.) | IC50 (human P2X3 receptor): 580 nM
